Where a name gives a salt, the structure may show the parent alone.
Key:
[1] = in vivo rat PK study, aqueous liquid suspension with 1% HPMC (Example 9); details: oral 10 mg/kg of Compound 1, 5 mL/kg, suspension in 1% HPMC
Description: (§1) An in vivo rat PK study was conducted to compare the PK profile and bioavailability of the free base crystalline form of Compound 1 against various salt forms of Compound 1 in an aqueous liquid suspension formulation, which contained 1% HPMC. Each animal was orally administrated 10 mg/kg of Compound 1 at 5 mL/kg dosing volume (a dosing concentration of 2 mg/mL).

[2] = stability of the crystals on storage and heating (HPLC, LCMS, NMR, XRPD); assay type: physicochemical; details: for decomposition on storage (HPLC, LCMS and NMR analysis): 40° C. and 75% relative humidity for 45 days; for physical form by XRPD before and after the stability tests: both samples of the stability tests
Description: The stability of the collected crystals were tested by storing the crystals at 40° C. and 75% relative humidity for 45 days.

[3] = hygroscopicity and physical stability by dynamic vapor sorption (DVS); assay type: physicochemical; details: for DVS weight change from 5% to 95% relative humidity (RH): 5% to 95% RH; for DVS weight change from about 0% RH to about 75% relative humidity: about 0% to about 75% RH; for change in XRPD before and after the DVS measurement: data not shown; for DVS weight change from about 0% RH to about 55% relative humidity: about 0% to about 55% RH
Description: To evaluate the hygroscopicity and physical stability of the collected crystals under different humidity, dynamic vapor sorption (DVS) data was collected at 25° C. after the sample was pre-equilibrated at 0% RH to remove unbounded water. DVS was measured using a VTI SGA-100 Vapor Sorption Analyzer. Sorption and desorption data was collected over a range from 5% to 95% RH at 10% RH increments under a nitrogen purge. The equilibrium criterion used for analysis was less than 0.0100% weight change in 5 minutes with a maximum equilibrium time of 3 hours. [table]

[4] = stability of the crystals on storage and heating (HPLC, LCMS, NMR, XRPD); assay type: physicochemical
[5] = in vivo rat PK study, aqueous liquid suspension with 0.5% w/v Hydroxypropyl Cellulose and 0.5% w/v Poloxamer F-68 (Example 8); details: oral 10 mg/kg of Compound 1, 5 mL/kg
Description: as §1, with “0.5% w/v Hydroxypropyl Cellulose (Klucel GF grade) and 0.5% w/v Poloxamer F-68 (BASF Kolliphor P188).” for “1% HPMC.”

[6] = in vivo, po, 10 mg/kg, read-out: AUC0-t
[7] = in vivo, po, 10 mg/kg, read-out: Cmax
[8] = 55° C. in a vacuum oven for 24 h
[9] = 75° C. for 1 week (open to air)
[10] = in vivo, po, 10 mg/kg, suspension in 0.5% HPC / 0.5% Poloxamer F-68
[11] = in vivo, po, 10 mg/kg, suspension in 0.5% HPC / 0.5% Poloxamer F-68, read-out: AUC0-t
[12] = in vivo, po, 10 mg/kg, suspension in 0.5% HPC / 0.5% Poloxamer F-68, read-out: Cmax
[13] = 25° C., listed as Napadisylate Salt of Compound 1 (Form I)
[14] = listed as Crystalline Napadisylate
[15] = suspension in 0.5% HPC / 0.5% Poloxamer F-68
[16] = 25° C., listed as Napsylate Salt of Compound 1 (Form I)
[17] = listed as Crystalline Napsylate
[18] = listed as Crystalline Edisylate
[19] = listed as Crystalline Camsylate

Row | physical form by XRPD before and after the stability tests [2] | change in XRPD before and after the DVS measurement [3] | AUC0-t [5, 15] [ng·h/mL] | AUCinf [5, 15] [ng·h/mL] | Cmax [5, 15] [ng/mL] | SMILES | decomposition on storage (HPLC, LCMS and NMR analysis) [2] | decomposition on heating (HPLC, LCMS and NMR analysis) [4, 8] | decomposition on heating (HPLC, LCMS and NMR analysis) [4, 9] | further results
1 | – | – | – | – | – | Cc1ccc(NC(=O)[C@H]2CCCN(C(=O)c3c(C)cccc3F)[C@H]2c2ccc(NC3CCCC3)cc2)cc1C(F)(F)F [Crystalline Free Base, (2R,3S)-2-(4-(cyclopentylamino)phenyl)-1-(2-fluoro-6-methylbenzoyl)-N-(4-methyl-3-(trifluoromethyl)phenyl)piperidine-3-carboxamide] | – | – | – | AUC0-t [1]: 1361 ng·h/mL; AUCinf [1]: 1377 ng·h/mL; Cmax [1]: 168 ng/mL
2 | remained the same | No change in XRPD | – | – | – | Cc1ccc(NC(=O)[C@H]2CCCN(C(=O)c3c(C)cccc3F)[C@H]2c2ccc(NC3CCCC3)cc2)cc1C(F)(F)F.O=S(=O)(O)c1ccccc1 [Besylate Salt (Form I), N-cyclopentyl-4-((2R,3S)-1-(2-fluoro-6-methylbenzoyl)-3-((4-methyl-3-(trifluoromethyl)phenyl)-carbamoyl)piperidin-2-yl)benzenaminium benzenesulfonate] | did not result in any appreciable decomposition | did not result in any appreciable decomposition | did not result in any appreciable decomposition | DVS weight change from 5% to 95% relative humidity (RH) ([3]; 25° C.): 0.73%; DVS weight change from about 0% RH to about 75% relative humidity ([3]; 25° C.): about 0.5%; AUC(0-inf) ([1]; in vivo, po, 10 mg/kg): 2220 ng·h/mL; AUC0-t [1, 6]: 2170 ng·h/mL; Cmax [1, 7]: 390 ng/mL; AUC(0-inf) [5, 10]: 2600 ng·h/mL; AUC0-t [5, 11]: 2510 ng·h/mL; Cmax [5, 12]: 493 ng/mL
3 | remained the same | No change in XRPD | – | – | – | Cc1ccc(NC(=O)[C@H]2CCCN(C(=O)c3c(C)cccc3F)[C@H]2c2ccc(NC3CCCC3)cc2)cc1C(F)(F)F.Cc1ccc(S(=O)(=O)O)cc1 [Tosylate Salt (Form I), N-cyclopentyl-4-((2R,3S)-1-(2-fluoro-6-methylbenzoyl)-3-((4-methyl-3-(trifluoromethyl)phenyl)-carbamoyl)piperidin-2-yl)benzenaminium 4-methylbenzenesulfonate] | did not result in any appreciable decomposition | did not result in any appreciable decomposition | did not result in any appreciable decomposition | DVS weight change from 5% to 95% relative humidity (RH) ([3]; 25° C.): 0.83%; DVS weight change from about 0% RH to about 75% relative humidity ([3]; 25° C.): about 0.58%; AUC(0-inf) ([1]; in vivo, po, 10 mg/kg): 3370 ng·h/mL; AUC0-t [1, 6]: 3310 ng·h/mL; Cmax [1, 7]: 649 ng/mL; AUC(0-inf) [5, 10]: 4150 ng·h/mL; AUC0-t [5, 11]: 4040 ng·h/mL; Cmax [5, 12]: 591 ng/mL
4 | remained the same | No change in XRPD | 3417 | 3478 | 718 | Cc1ccc(NC(=O)[C@H]2CCCN(C(=O)c3c(C)cccc3F)[C@H]2c2ccc(NC3CCCC3)cc2)cc1C(F)(F)F [Napadisylate Salt (Form I), N-cyclopentyl-4-((2R,3S)-1-(2-fluoro-6-methylbenzoyl)-3-((4-methyl-3-(trifluoromethyl)phenyl)-carbamoyl)piperidin-2-yl)benzenaminium naphthalene-1,5-disulfonate] | did not result in any appreciable decomposition | did not result in any appreciable decomposition | did not result in any appreciable decomposition | DVS weight change from 5% to 95% relative humidity (RH) [3, 13]: 1.42%; DVS weight change from about 0% RH to about 55% relative humidity [3, 13]: about 0.6%; AUC0-t [1, 14]: 5856 ng·h/mL; AUCinf [1, 14]: 7743 ng·h/mL; Cmax [1, 14]: 753 ng/mL
5 | remained the same | No change in XRPD | 4876 | 5057 | 778 | Cc1ccc(NC(=O)[C@H]2CCCN(C(=O)c3c(C)cccc3F)[C@H]2c2ccc(NC3CCCC3)cc2)cc1C(F)(F)F [Napsylate Salt (Form I), N-cyclopentyl-4-((2R,3S)-1-(2-fluoro-6-methylbenzoyl)-3-((4-methyl-3-(trifluoromethyl)phenyl)-carbamoyl)piperidin-2-yl)benzenaminium naphthalene-2-sulfonate] | did not result in any appreciable decomposition | did not result in any appreciable decomposition | did not result in any appreciable decomposition | DVS weight change from 5% to 95% relative humidity (RH) [3, 16]: 0.65%; DVS weight change from about 0% RH to about 55% relative humidity [3, 16]: about 0.2%; AUC0-t [1, 17]: 4277 ng·h/mL; AUCinf [1, 17]: 4589 ng·h/mL; Cmax [1, 17]: 601 ng/mL
6 | – | – | 2839 | 3197 | 435 | Cc1ccc(NC(=O)[C@H]2CCCN(C(=O)c3c(C)cccc3F)[C@H]2c2ccc(NC3CCCC3)cc2)cc1C(F)(F)F [Edisylate Salt (Form I), N-cyclopentyl-4-((2R,3S)-1-(2-fluoro-6-methylbenzoyl)-3-((4-methyl-3-(trifluoromethyl)phenyl)carbamoyl)piperidin-2-yl)benzenaminium ethane-1,2-disulfonate] | – | – | – | AUC0-t [1, 18]: 2126 ng·h/mL; AUCinf [1, 18]: 2162 ng·h/mL; Cmax [1, 18]: 525 ng/mL
7 | remained the same | No change in XRPD | 3870 | 3922 | 738 | Cc1ccc(NC(=O)[C@H]2CCCN(C(=O)c3c(C)cccc3F)[C@H]2c2ccc(NC3CCCC3)cc2)cc1C(F)(F)F [Camsylate Salt (Form I), N-cyclopentyl-4-((2R,3S)-1-(2-fluoro-6-methylbenzoyl)-3-((4-methyl-3-(trifluoromethyl)phenyl)-carbamoyl)piperidin-2-yl)benzenaminium (1S)-(+)-10-camphorsulfonate] | did not result in any appreciable decomposition | did not result in any appreciable decomposition | did not result in any appreciable decomposition | DVS weight change from 5% to 95% relative humidity (RH) ([3]; 25° C., listed as Camsylate Salt of Compound 1 (Form I)): 0.96%; DVS weight change from about 0% RH to about 65% relative humidity ([3]; 25° C., about 0% to about 65% RH): about 0.35%; AUC0-t [1, 19]: 2877 ng·h/mL; AUCinf [1, 19]: 3005 ng·h/mL; Cmax [1, 19]: 553 ng/mL

Reference: patent publication US11427541B2, “Salt forms of a complement component C5A receptor” (CHEMOCENTRYX, INC., priority 2019, dated 2022)
